# From ChEMBL document CHEMBL5291721, “A preclinical secondary pharmacology resource illuminates target-adverse drug reaction associations of marketed drugs” (Nat Commun, 2023)
# Columns and labels:
# Adenosine receptor A3 = molecular target: T1, Adenosine receptor A3 (Homo sapiens, UniProt P0DMS8)
# T1 sequence (P0DMS8 whole entry): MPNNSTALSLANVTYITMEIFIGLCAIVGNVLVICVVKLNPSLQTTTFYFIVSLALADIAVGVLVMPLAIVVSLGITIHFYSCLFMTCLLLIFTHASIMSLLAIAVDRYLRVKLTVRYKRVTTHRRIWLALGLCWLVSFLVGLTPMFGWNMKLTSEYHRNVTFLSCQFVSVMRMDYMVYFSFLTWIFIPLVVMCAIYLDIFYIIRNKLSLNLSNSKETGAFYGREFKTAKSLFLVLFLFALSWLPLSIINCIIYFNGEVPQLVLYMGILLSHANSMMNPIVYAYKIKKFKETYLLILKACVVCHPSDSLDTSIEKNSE
# [1] = molecular target: T2, Alpha-1A adrenergic receptor (Homo sapiens, UniProt P35348); assay type: functional, cell-based
# T2 sequence (P35348 whole entry): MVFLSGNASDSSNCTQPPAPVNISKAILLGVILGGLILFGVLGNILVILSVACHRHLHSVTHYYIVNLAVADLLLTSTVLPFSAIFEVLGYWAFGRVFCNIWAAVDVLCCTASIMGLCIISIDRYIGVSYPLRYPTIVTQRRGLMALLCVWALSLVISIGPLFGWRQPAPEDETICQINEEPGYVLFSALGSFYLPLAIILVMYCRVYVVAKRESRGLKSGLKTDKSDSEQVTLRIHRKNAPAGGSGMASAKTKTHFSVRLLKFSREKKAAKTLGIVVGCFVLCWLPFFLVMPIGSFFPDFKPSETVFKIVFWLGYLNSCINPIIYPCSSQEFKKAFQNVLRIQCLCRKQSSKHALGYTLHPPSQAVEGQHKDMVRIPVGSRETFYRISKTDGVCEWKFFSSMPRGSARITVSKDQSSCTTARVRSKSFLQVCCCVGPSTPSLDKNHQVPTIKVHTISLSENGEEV
# [2] = molecular target: T3, Muscarinic acetylcholine receptor M2 (Homo sapiens, UniProt P08172)
# T3 sequence (P08172 whole entry): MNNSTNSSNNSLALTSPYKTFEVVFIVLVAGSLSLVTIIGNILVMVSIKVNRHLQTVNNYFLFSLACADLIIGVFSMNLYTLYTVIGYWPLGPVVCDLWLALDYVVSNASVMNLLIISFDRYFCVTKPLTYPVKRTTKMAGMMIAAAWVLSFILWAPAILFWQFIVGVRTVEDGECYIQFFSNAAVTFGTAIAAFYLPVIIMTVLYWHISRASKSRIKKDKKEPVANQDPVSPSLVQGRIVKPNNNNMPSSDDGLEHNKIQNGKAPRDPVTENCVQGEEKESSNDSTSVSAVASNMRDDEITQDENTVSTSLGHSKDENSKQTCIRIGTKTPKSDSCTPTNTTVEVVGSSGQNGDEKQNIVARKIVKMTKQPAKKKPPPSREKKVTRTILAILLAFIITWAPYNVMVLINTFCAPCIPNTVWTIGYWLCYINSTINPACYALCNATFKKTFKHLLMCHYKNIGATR
# Estrogen receptor = molecular target: T4, Estrogen receptor (Homo sapiens, UniProt P03372)
# T4 sequence (P03372 whole entry): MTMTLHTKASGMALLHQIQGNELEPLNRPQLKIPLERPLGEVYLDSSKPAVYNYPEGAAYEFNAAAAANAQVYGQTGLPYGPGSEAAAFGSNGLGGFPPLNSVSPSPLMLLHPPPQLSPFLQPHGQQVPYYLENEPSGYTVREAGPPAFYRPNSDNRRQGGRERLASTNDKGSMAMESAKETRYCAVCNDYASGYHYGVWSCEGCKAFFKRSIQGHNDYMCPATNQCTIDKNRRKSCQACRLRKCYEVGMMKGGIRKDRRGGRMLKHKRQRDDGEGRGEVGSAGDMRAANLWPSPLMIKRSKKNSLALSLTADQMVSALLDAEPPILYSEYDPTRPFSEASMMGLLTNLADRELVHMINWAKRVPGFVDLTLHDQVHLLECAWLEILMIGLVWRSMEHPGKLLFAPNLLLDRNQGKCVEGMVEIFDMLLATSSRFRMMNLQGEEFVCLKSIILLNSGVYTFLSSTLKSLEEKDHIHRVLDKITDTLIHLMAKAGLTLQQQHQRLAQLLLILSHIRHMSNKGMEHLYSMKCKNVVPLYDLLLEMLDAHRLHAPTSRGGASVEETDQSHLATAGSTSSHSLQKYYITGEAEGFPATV
# Prothrombin = Prothrombin (Homo sapiens, UniProt P00734); assay type: functional
# [3] = molecular target: 5-hydroxytryptamine receptor 2B (Homo sapiens, UniProt P41595); assay type: functional, cell-based
# Sequence of 5-hydroxytryptamine receptor 2B (P41595 whole entry): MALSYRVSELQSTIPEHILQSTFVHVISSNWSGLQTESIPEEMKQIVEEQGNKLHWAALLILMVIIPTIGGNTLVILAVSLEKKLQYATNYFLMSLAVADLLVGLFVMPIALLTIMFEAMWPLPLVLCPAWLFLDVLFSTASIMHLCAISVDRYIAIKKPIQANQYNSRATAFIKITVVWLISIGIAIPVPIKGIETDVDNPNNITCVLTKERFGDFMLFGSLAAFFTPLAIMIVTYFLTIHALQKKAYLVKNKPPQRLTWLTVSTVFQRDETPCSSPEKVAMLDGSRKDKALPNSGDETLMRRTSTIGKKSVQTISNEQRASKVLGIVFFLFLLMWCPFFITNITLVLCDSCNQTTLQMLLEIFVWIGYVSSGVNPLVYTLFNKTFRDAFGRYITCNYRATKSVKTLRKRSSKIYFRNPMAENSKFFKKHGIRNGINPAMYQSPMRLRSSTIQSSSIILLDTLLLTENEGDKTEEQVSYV
# [4] = molecular target: Voltage-gated inwardly rectifying potassium channel KCNH2 (Homo sapiens, UniProt Q12809); assay type: functional; conditions: read-out: AC50
# Sequence of Voltage-gated inwardly rectifying potassium channel KCNH2 (Q12809 whole entry): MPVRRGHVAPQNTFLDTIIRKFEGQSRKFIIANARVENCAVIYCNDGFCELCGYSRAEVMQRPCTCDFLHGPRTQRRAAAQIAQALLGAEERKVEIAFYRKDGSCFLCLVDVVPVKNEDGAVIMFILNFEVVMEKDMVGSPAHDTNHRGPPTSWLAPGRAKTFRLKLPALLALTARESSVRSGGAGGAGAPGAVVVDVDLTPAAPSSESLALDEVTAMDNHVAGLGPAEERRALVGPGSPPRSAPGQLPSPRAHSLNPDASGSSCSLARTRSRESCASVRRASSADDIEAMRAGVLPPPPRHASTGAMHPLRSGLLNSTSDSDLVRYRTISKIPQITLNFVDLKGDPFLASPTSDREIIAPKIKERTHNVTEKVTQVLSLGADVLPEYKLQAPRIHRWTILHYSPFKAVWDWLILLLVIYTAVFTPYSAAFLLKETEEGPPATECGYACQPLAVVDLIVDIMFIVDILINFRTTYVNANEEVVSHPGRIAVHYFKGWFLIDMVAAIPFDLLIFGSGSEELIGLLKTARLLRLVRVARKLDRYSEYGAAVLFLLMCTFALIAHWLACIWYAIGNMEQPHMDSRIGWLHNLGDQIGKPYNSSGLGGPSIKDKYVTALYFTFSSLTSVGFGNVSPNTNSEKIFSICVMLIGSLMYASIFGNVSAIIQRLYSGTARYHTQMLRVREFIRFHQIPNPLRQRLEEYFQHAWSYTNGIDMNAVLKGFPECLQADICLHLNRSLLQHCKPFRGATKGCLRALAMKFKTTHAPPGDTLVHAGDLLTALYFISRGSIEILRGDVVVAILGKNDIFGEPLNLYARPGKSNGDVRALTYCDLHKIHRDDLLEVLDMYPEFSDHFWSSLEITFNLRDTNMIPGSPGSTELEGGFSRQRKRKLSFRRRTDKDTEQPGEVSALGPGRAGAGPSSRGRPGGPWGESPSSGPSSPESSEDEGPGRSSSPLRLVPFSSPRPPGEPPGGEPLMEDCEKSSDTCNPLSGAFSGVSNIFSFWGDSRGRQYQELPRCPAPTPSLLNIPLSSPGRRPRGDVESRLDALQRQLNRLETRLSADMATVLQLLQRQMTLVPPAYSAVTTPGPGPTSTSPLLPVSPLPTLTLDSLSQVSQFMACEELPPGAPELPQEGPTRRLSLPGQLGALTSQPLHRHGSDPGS
# [5] = molecular target: Prostaglandin G/H synthase 1 (Homo sapiens, UniProt P23219); assay type: functional
# Sequence of Prostaglandin G/H synthase 1 (P23219 whole entry): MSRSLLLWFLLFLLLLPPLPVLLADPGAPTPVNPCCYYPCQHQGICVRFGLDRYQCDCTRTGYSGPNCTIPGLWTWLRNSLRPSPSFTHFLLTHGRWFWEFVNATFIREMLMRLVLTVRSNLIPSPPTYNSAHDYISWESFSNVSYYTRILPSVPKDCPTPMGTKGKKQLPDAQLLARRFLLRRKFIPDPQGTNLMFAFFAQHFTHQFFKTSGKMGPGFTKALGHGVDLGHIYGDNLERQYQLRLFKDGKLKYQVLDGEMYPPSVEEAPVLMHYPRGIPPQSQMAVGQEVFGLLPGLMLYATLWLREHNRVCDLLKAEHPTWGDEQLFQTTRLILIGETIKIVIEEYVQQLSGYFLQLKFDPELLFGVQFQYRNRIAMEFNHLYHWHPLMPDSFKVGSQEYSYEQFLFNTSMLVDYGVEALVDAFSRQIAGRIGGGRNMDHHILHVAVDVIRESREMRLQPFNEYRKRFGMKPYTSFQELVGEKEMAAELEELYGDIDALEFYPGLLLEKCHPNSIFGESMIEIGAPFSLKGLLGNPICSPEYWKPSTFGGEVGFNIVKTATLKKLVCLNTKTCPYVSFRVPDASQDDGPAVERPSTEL
# [6] = molecular target: Sodium-dependent dopamine transporter (Homo sapiens, UniProt Q01959)
# Sequence of Sodium-dependent dopamine transporter (Q01959 whole entry): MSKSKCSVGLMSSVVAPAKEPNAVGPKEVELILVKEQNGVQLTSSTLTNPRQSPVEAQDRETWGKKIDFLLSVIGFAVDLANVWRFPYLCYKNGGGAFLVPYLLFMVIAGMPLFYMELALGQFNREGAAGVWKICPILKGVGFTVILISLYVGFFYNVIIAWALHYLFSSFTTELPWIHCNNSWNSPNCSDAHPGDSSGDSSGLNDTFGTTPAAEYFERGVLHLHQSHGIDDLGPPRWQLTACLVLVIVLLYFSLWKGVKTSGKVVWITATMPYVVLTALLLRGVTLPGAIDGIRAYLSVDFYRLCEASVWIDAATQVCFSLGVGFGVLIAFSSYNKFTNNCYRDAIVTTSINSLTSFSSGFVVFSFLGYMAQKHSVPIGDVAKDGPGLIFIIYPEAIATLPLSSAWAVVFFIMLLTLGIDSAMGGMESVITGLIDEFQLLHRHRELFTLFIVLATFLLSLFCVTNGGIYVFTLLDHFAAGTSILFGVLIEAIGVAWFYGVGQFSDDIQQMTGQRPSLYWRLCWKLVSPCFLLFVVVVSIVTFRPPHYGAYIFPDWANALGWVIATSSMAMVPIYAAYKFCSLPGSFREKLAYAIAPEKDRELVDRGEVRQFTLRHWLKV
# Thromboxane A2 receptor = molecular target: T5, Thromboxane A2 receptor (Homo sapiens, UniProt P21731); assay type: functional, cell-based
# T5 sequence (P21731 whole entry): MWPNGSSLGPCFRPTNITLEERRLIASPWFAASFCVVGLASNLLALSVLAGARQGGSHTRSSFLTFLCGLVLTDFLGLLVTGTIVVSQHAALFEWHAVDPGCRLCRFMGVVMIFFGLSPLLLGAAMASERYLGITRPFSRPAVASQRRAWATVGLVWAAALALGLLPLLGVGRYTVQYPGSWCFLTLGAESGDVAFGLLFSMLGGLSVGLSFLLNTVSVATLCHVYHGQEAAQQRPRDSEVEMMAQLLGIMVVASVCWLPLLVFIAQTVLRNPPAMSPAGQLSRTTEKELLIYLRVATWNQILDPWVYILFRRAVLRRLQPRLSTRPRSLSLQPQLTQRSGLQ
# Note: assay procedure not described here.
SMILES,AC50 (Adenosine receptor A3) [µM],AC50 [1] [µM],AC50 [2] [µM],AC50 (Estrogen receptor) [µM],AC50 (Prothrombin) [µM],AC50 [3] [µM],AC50 [4] [µM],AC50 [5] [µM],AC50 [6] [µM],AC50 (Thromboxane A2 receptor) [µM]
C[C@@H]1C[C@H]2[C@@H]3C[C@H](F)C4=CC(=O)C=C[C@]4(C)[C@@]3(F)[C@@H](O)C[C@]2(C)[C@@]1(O)C(=O)COC(=O)C(C)(C)C [FLUMETHASONE PIVALATE],> 30,> 30,> 30,> 30,> 30,> 30,> 30,> 30,> 30,> 30
C[C@@H]1C[C@H]2[C@@H]3C[C@H](F)C4=CC(=O)C(Cl)=C[C@]4(C)[C@@]3(F)[C@@H](O)C[C@]2(C)[C@@]1(O)C(=O)CO [HALOMETASONE],> 30,23.3,> 30,> 30,> 30,> 30,> 30,> 30,> 30,18.6
CC/C=C\C/C=C\C/C=C\C/C=C\C/C=C\CCCC(=O)O [ICOSAPENT],25.3,> 30,> 30,> 30,> 30,> 30,> 30,9.84,> 30,> 30
Oc1c(I)cc(I)c2cccnc12 [IODOQUINOL],> 3,> 30,> 10,> 30,> 30,> 30,> 30,> 30,> 30,> 30
CCC(Cc1c(I)cc(I)c(N)c1I)C(=O)O (stereo not given) [IOPANOIC ACID],> 30,24.2,> 30,> 30,> 30,> 30,> 30,> 30,> 30,14.4
O=C(NC1CCN(CCCCC2(C(=O)NCC(F)(F)F)c3ccccc3-c3ccccc32)CC1)c1ccccc1-c1ccc(C(F)(F)F)cc1 [LOMITAPIDE],4.4,2.4,22.6,> 30,> 30,> 30,0.86,> 30,0.239,> 1
Nc1nc2c(ncn2CCC(CO)CO)c(=O)[nH]1 [PENCICLOVIR],> 30,> 30,> 30,> 30,> 30,> 30,> 30,> 30,> 30,> 30
CN1CCC2=C(C1)c1ccccc1Cc1ccccc12 [SETIPTILINE],> 30,0.231,0.855,> 30,> 30,> 30,13,> 30,24.1,> 30
COc1ccc(CCC(C)NCC(O)c2ccc(O)c([S+](C)[O-])c2)cc1 (stereo not given) [SULFINALOL],> 30,20.3,> 30,> 30,> 30,> 30,> 30,> 30,> 30,> 30
CCC1C(C)=NN=C(c2ccc(OC)c(OC)c2)c2cc(OC)c(OC)cc21 (stereo not given) [TOFISOPAM],> 30,> 30,> 30,> 30,> 30,> 30,> 30,> 30,> 30,> 30
